Data published in PubChem BioAssay AID1053181 (The Scripps Research Institute Molecular Screening Center, 2014).
Calls of active or inactive are those of the source. The rule behind the calls is not given here.

Target: Trace amine-associated receptor 1 (Homo sapiens) (UniProt Q96RJ0)
Test: TAAR1 agonists in human receptor cells, SAR follow-up, cell-based, fluorescence, MedChem round 2 (AID 1053181)
Conditions: TAAR1-expressing cells, fluorescence agonist read-out

Trace amine-associated receptor 1 (Homo sapiens), sequence (Q96RJ0 whole entry, looked up): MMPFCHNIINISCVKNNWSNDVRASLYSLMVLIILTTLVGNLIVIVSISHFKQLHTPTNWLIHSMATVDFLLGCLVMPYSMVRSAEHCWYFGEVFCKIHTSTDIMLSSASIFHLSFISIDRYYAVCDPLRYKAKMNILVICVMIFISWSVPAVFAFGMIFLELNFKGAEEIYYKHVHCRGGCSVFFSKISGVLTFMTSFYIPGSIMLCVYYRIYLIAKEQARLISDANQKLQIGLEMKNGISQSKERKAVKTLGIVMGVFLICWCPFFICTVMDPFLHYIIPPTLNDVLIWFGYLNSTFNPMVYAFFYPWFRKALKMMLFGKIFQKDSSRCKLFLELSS

| Structure (SMILES) | EC50 |
| --- | --- |
| N#Cc1c(C(F)(F)F)cc(-c2ccc(Cl)cc2)nc1SCC(=O)N1CCCCCC1 | > 29900 nM (inactive) |
| O=C(CCN1CCC(c2ccccc2)C1)c1ccccc1 (configuration not stated) | 765 nM |
| Cc1ccc(C(=O)CCN2CCC(c3ccccc3)C2)cc1 (configuration not stated) | 672 nM |
| CC(CN1CCCC1Cc1ccccc1)C(=O)c1ccc2c(c1)OCCO2 (configuration not stated) | 2960 nM |
| N#Cc1c(C(F)(F)F)cc(-c2ccc(Cl)cc2)nc1SCC(=O)N1CCCC1 | 1070 nM |

Second part, the molecule after the results:

| EC50 | Structure (SMILES) |
| --- | --- |
| 419 nM | COc1cc(C(=O)CCN2CCC(c3ccccc3)C2)cc(OC)c1OC (configuration not stated) |
| 3.74 nM | N#Cc1c(C(F)(F)F)cc(-c2ccc(Cl)cc2)nc1SCC(=O)Nc1ncccn1 |
